From patent US20250243189A1, “HERBICIDAL IMIDAZOLE-CONTAINING COMPOUNDS” (SYNGENTA CROP PROTECTION AG, priority 2022, published 2025)

What was measured:
Type in all cases: in vivo
Details in all cases: 250 g/ha, evaluated after 13 days, five-point scale
AMAPA [1] = experiment: Post-emergence herbicidal glasshouse test
Experimental: [Worded in the source for another organism; this organism is reported under the same test.] (§1) Seeds of a variety of test species are sown in standard soil in pots Amaranthus retoflexus (AMARE), Echinochloa crus-galli (ECHCG), Setaria faberi (SETFA)). After cultivation for one day (pre-emergence) or after 8 days cultivation (post-emergence) under controlled conditions in a glasshouse (at 24/16° C., day/night; 14 hours light; 65% humidity), the plants are sprayed with an aqueous spray solution derived from the formulation of the technical active ingredient in acetone/water (50:50) solution containing 0.5% Tween 20 (polyoxyethelyene sorbitan monolaurate, CAS RN 9005-64-5). Compounds are applied at 250 g/ha unless otherwise stated. The test plants are then grown in a glasshouse under controlled conditions in a glasshouse (at 24/16° C., day/night; 14 hours light; 65% humidity) and watered twice daily. After 13 days for pre and post-emergence, the test is evaluated for the percentage damage caused to the plant. The biological activities are shown in the following table on a five-point scale (5=81-100%; 4=61-80%; 3=41-60%; 2=21-40%; 1=0-20%).

IPOHE [2] = experiment: Post-emergence herbicidal glasshouse test
Experimental: as §1

[3] = tested on: Amaranthus retoflexus (AMARE); experiment: Post-emergence herbicidal glasshouse test
Experimental: as §1

Setaria faberi (SETFA) [4] = experiment: Post-emergence herbicidal glasshouse test
Experimental: as §1

[5] = tested on: Echinochloa crus-galli (ECHCG); experiment: Post-emergence herbicidal glasshouse test
Experimental: as §1

AMAPA [6] = experiment: Pre-emergence herbicidal glasshouse test
Experimental: [Worded in the source for another organism; this organism is reported under the same test.] as §1

IPOHE [7] = experiment: Pre-emergence herbicidal glasshouse test
Experimental: as §1

[8] = tested on: Amaranthus retoflexus (AMARE); experiment: Pre-emergence herbicidal glasshouse test
Experimental: as §1

Setaria faberi (SETFA) [9] = experiment: Pre-emergence herbicidal glasshouse test
Experimental: as §1

[10] = tested on: Echinochloa crus-galli (ECHCG); experiment: Pre-emergence herbicidal glasshouse test
Experimental: as §1

Row | SMILES | percentage damage caused to the plant, AMAPA (AMAPA [1]) | percentage damage caused to the plant, IPOHE (IPOHE [2]) | percentage damage caused to the plant, AMARE [3] | percentage damage caused to the plant, SETFA (Setaria faberi (SETFA) [4]) | percentage damage caused to the plant, ECHCG [5] | percentage damage caused to the plant, AMAPA (AMAPA [6]) | percentage damage caused to the plant, IPOHE (IPOHE [7]) | percentage damage caused to the plant, AMARE [8] | percentage damage caused to the plant, SETFA (Setaria faberi (SETFA) [9]) | percentage damage caused to the plant, ECHCG [10]
1 | Fc1cnn(-c2nc(C(F)(F)F)cn2Cc2ncc(Cl)cn2)c1 [Compound 1.067] | 3 (3=41-60%) | 2 (2=21-40%) | 4 (4=61-80%) | 1 (1=0-20%) | 1 (1=0-20%) | 4 (4=61-80%) | 2 (2=21-40%) | 5 (5=81-100%) | 1 (1=0-20%) | 1 (1=0-20%)
2 | FC(F)(F)c1cn(Cc2ncc(Cl)cn2)c(-n2ccc(Cl)n2)n1 [Compound 1.066] | 3 (3=41-60%) | 4 (4=61-80%) | 4 (4=61-80%) | 1 (1=0-20%) | 1 (1=0-20%) | 5 (5=81-100%) | 4 (4=61-80%) | 5 (5=81-100%) | 2 (2=21-40%) | 1 (1=0-20%)
3 | Cc1csc(-c2nc(C(F)(F)F)cn2Cc2ncc(Cl)cn2)c1 [Compound 1.029] | 5 (5=81-100%) | 2 (2=21-40%) | 5 (5=81-100%) | 4 (4=61-80%) | 4 (4=61-80%) | 5 (5=81-100%) | 1 (1=0-20%) | 5 (5=81-100%) | 5 (5=81-100%) | 5 (5=81-100%)
4 | FC(F)(F)c1cn(Cc2ncc(Cl)cn2)c(-c2ccns2)n1 [Compound 1.033] | 5 (5=81-100%) | 4 (4=61-80%) | 5 (5=81-100%) | 5 (5=81-100%) | 5 (5=81-100%) | 5 (5=81-100%) | 5 (5=81-100%) | 5 (5=81-100%) | 5 (5=81-100%) | 5 (5=81-100%)
5 | FC(F)(F)c1cn(Cc2ncc(Cl)cn2)c(-c2csc(Cl)n2)n1 [Compound 1.009] | 2 (2=21-40%) | 1 (1=0-20%) | 2 (2=21-40%) | – | 1 (1=0-20%) | 3 (3=41-60%) | 1 (1=0-20%) | 4 (4=61-80%) | – | 1 (1=0-20%)
6 | N#Cc1ccc(Cn2cc(C(F)(F)F)nc2-c2ccc(Cl)s2)nc1 [Compound 1.049] | 5 (5=81-100%) | 4 (4=61-80%) | 5 (5=81-100%) | – | 4 (4=61-80%) | 5 (5=81-100%) | 5 (5=81-100%) | 5 (5=81-100%) | – | 4 (4=61-80%)
7 | FC(F)(F)c1cn(Cc2ncc(Cl)cn2)c(-c2cnn(C3CC3)c2)n1 [Compound 1.015] | 4 (4=61-80%) | 5 (5=81-100%) | 5 (5=81-100%) | – | 4 (4=61-80%) | 5 (5=81-100%) | 5 (5=81-100%) | 5 (5=81-100%) | – | 5 (5=81-100%)
8 | Fc1ccc(Cn2cc(C(F)(F)F)nc2-c2ccc(Cl)s2)nc1 [Compound 1.050] | 4 (4=61-80%) | 4 (4=61-80%) | 4 (4=61-80%) | – | 4 (4=61-80%) | 5 (5=81-100%) | 5 (5=81-100%) | 5 (5=81-100%) | – | 5 (5=81-100%)
9 | FC(F)(F)c1cn(Cc2ncc(Cl)cn2)c(-c2sccc2Br)n1 [Compound 1.044] | 2 (2=21-40%) | 3 (3=41-60%) | 2 (2=21-40%) | – | 1 (1=0-20%) | 5 (5=81-100%) | 1 (1=0-20%) | 5 (5=81-100%) | – | 1 (1=0-20%)
10 | N#Cc1ccc(-c2nc(C(F)(F)F)cn2Cc2ncc(Cl)cn2)s1 [Compound 1.027] | 5 (5=81-100%) | 4 (4=61-80%) | 5 (5=81-100%) | – | 5 (5=81-100%) | 5 (5=81-100%) | 5 (5=81-100%) | 5 (5=81-100%) | – | 5 (5=81-100%)
11 | CS(=O)(=O)c1ccc(-c2nc(C(F)(F)F)cn2Cc2ncc(Cl)cn2)s1 [Compound 1.003] | 4 (4=61-80%) | 4 (4=61-80%) | 4 (4=61-80%) | – | 5 (5=81-100%) | 5 (5=81-100%) | 5 (5=81-100%) | 5 (5=81-100%) | – | 5 (5=81-100%)
12 | Cc1ncsc1-c1nc(C(F)(F)F)cn1Cc1ncc(Cl)cn1 [Compound 1.042] | 5 (5=81-100%) | 4 (4=61-80%) | 5 (5=81-100%) | – | 4 (4=61-80%) | 5 (5=81-100%) | 5 (5=81-100%) | 5 (5=81-100%) | – | 5 (5=81-100%)
13 | FC(F)(F)c1cn(Cc2ncc(Cl)cn2)c(-c2cc(Cl)cs2)n1 [Compound 1.010] | 4 (4=61-80%) | 4 (4=61-80%) | 4 (4=61-80%) | – | 4 (4=61-80%) | 5 (5=81-100%) | 4 (4=61-80%) | 5 (5=81-100%) | – | 5 (5=81-100%)
14 | FC(F)(F)c1cn(Cc2ncc(Cl)cn2)c(-c2sccc2Cl)n1 [Compound 1.002] | 1 (1=0-20%) | 1 (1=0-20%) | 1 (1=0-20%) | – | 1 (1=0-20%) | 2 (2=21-40%) | 1 (1=0-20%) | 2 (2=21-40%) | – | 1 (1=0-20%)
15 | FC(F)(F)c1cn(Cc2ncc(Cl)cn2)c(-c2csc(Cl)c2)n1 [Compound 1.021] | 5 (5=81-100%) | 4 (4=61-80%) | 4 (4=61-80%) | – | 4 (4=61-80%) | 5 (5=81-100%) | 4 (4=61-80%) | 5 (5=81-100%) | – | 5 (5=81-100%)
16 | FC(F)(F)c1cn(Cc2ncc(Cl)cn2)c(-c2ncco2)n1 [Compound 1.019] | 1 (1=0-20%) | 1 (1=0-20%) | 1 (1=0-20%) | – | 1 (1=0-20%) | 1 (1=0-20%) | 1 (1=0-20%) | 1 (1=0-20%) | – | 1 (1=0-20%)
